{
  "source": "ChEMBL document CHEMBL5329169",
  "about": "“Recent developments in membrane targeting antifungal agents to mitigate antifungal resistance” (2023)",
  "type_in_all_cases": "functional",
  "key": {"Candida albicans [1]": {"test_system": "Candida albicans", "test": "Antifungal activity against Candida albicans ATCC 10231 assessed as fungal growth inhibition measured after 24 hrs by two fold serial dilution technique"}, "Candida albicans [2]": {"test_system": "Candida albicans", "test": "Antifungal activity against Candida albicans SC5314 assessed as fungal growth inhibition measured after 20 hrs by microplate assay"}, "Cryptococcus neoformans": {"test_system": "Cryptococcus neoformans", "test": "Antifungal activity against Cryptococcus neoformans H99 assessed as fungal growth inhibition measured after 20 hrs by microplate assay"}, "Candida albicans [3]": {"test_system": "Candida albicans", "test": "Antifungal activity against Candida albicans assessed as fungal growth inhibition measured after 48 hrs by broth microdilution assay"}, "Candida albicans [4]": {"test_system": "Candida albicans", "test": "Antifungal activity against Candida albicans SC5314 assessed as log reduction in fungal growth at 2x MIC measured after 6 hrs"}},
  "data": [
    {"compound": "CC[n+]1ccn(CCC[C@@H](C)[C@H]2CC[C@H]3[C@@H]4CC[C@@H]5C[C@H](O)CC[C@]5(C)[C@H]4CC[C@]23C)c1.[I-]", "values": [
      {"measurement": "MIC80", "setting": "Candida albicans [1]", "value": 0.5, "unit": "µg/mL"}
    ]},
    {"compound": "CCCCCCCCCCN(Cc1cccc2ccccc12)C(=O)C(N)CCCCN", "note": "(stereo unspecified)", "values": [
      {"measurement": "MIC80", "setting": "Candida albicans [2]", "value": 12.5, "unit": "µg/mL"},
      {"measurement": "MIC80", "setting": "Cryptococcus neoformans", "value": 3.1, "unit": "µg/mL"}
    ]},
    {"compound": "C[C@H](CCCn1cc[n+](C)c1)[C@H]1CC[C@H]2[C@@H]3CC[C@@H]4C[C@H](O)CC[C@]4(C)[C@H]3CC[C@]12C.[I-]", "values": [
      {"measurement": "MIC80", "setting": "Candida albicans [1]", "value": 0.25, "unit": "µg/mL"}
    ]},
    {"compound": "C[C@H](CCC(=O)O)[C@H]1CC[C@H]2[C@@H]3CC[C@@H]4C[C@H](O)CC[C@]4(C)[C@H]3CC[C@]12C", "note": "[LITHOCHOLIC ACID]", "values": [
      {"measurement": "MIC80", "setting": "Candida albicans [3]", "value": 3.12, "unit": "µg/mL"}
    ]},
    {"compound": "H-GIWKKWIKKWLKKLKNLF-NH2", "values": [
      {"measurement": "Activity", "setting": "Candida albicans [4]", "value": 5.55, "unit": "log reduction"}
    ]}
  ]
}
